Measured values as given in ChEMBL document CHEMBL1141637, “Synthesis and anti-inflammation evaluation of new C60 fulleropyrrolidines bearing biologically active xanthine” (2008).

Key:
J774.A1 [1] = assay: Reduction of LPS-induced nitric oxide production in mouse J774A.1 cells at 10 uM after 3 hrs relative to control; format: functional; design: scale not given: the % may be the effect or the level left
J774.A1 [2] = assay: Reduction of LPS-induced TNFalpha production in mouse J774A.1 cells at 10 uM after 3 hrs by ELISA relative to control; format: functional; design: scale not given: the % may be the effect or the level left

SMILES: CC(=O)CCCCn1c(=O)c2c(ncn2C)n(C)c1=O [PENTOXIFYLLINE]
- Activity (J774.A1 [1]): 33.9%
- Activity (J774.A1 [2]): 7.5%
